Reference: patent US20050054559A1, “Compounds for sustained release of orally delivered drugs” (priority 2000, published 2005)
Square brackets hold non-standard residues; d marks the D form. Peptide text beside a SMILES is read from it. * marks the point of attachment. Bn = c1ccc(C*)cc1

Experiments:
IBAT [1] = molecular target: T1, IBAT (Homo sapiens, UniProt Q12908); assay: Electrogenic transport in Xenopus oocytes expressing IBAT; assay type: cell-based; settings: for % Max. (GDC): relative to glycodeoxycholate
From the text: RNA preparation: Human IBAT and LBAT Transporter cDNAs were subcloned into a modified pGEM plasmid that contains 5′ and 3′ untranslated sequences from the Xenopus β-actin gene. These sequences increase RNA stability and protein expression. Plasmid cDNA was linearized and used as template for in vitro transcription (Epicentre Technologies transcription kit, 4:1 methylated:non-methylated GTP).
(§1) Xenopus oocyte isolation. Xenopus laevis frogs were anesthetized by immersion in Tricaine ([…] in deionized water) for 15 min. Oocytes were removed and digested in frog ringer solution (90 mM NaCl, 2 mM KCl, 1 mM MgCl2, 10 mM NaHEPES, pH 7.45, no CaCl2) with 1 mg/mL collagenase (Worthington Type 3) for 80-100 min with shaking. The oocytes were washed 6 times, and the buffer changed to frog ringer solution containing CaCl2 (1.8 mM). Remaining follicle cells were removed if necessary. Cells were incubated at 16° C., and each oocyte injected with […] RNA in […] solution.
(§2) Electrophysiology measurements. Transport currents were measured 2-14 days after injection, using a standard two-electrode electrophysiology set-up (Geneclamp 500 amplifier, Digidata 1320/PCLAMP software and ADInstruments hardware and software were used for signal acquisition). Electrodes ([…]) were microfabricated using a Sutter Instrument puller and filled with 3M KCl. The bath was directly grounded (transporter currents were less than 0.3 μA). Bath flow was controlled by an automated perfusion system (ALA Scientific Instruments, solenoid valves).
For transporter pharmacology, oocytes were clamped at −60 to −90 mV, and continuous current measurements acquired using PowerLab Software and an ADInstruments digitizer. Current signals were lowpass filtered at 20 Hz and acquired at 4-8 Hz. All bath and drug-containing solutions were frog ringers solution containing CaCl2. Drugs were applied for 10-30 seconds until the induced current reached a new steady-state level, followed by a control solution until baseline currents returned to levels that preceded drug application. The difference current (baseline subtracted from peak current during drug application) reflected the net movement of charge resulting from electrogenic transport and was directly proportional to tranport rate. Recordings were made from a single oocyte for up to 60 min, enabling 30-40 separate compounds to be tested per oocyte. […]. Using this normalization procedure Vmax (i.e. maximal induced current) for different compounds tested on different oocytes could be compared.

LBAT = molecular target: T2, LBAT (Homo sapiens, UniProt Q14973); assay: Inhibition of radiolabeled taurocholate uptake in LBAT-transfected CHO cells; assay type: cell-based; settings: radiolabeled competition assay in transporter-expressing CHO cells
T2 construct: expressed in transfected cells; host or cells: CHO cells
Method: (§3) CHO cells transfected with either the IBAT or LBAT transporter were seeded into 96-well microtiter plates at 100,000 cells/well in 100 μL DMEM containing 10% serum, glutamine and Penstrep. After overnight incubation the media was removed and test compound (25 μL) added at 2× the final desired concentration. Tritiated taurocholate (50,000 CPM/well) was diluted with cold substrate to a final concentration of 5 μM and 25 μL/well of this mixture was added to the plate. After incubating for 1 h at room temperature the solution was removed and the plate washed 4× with PBS at 4° C. 200 μL/well of scintillant is added and the plate then read in a Wallac microbeta counter. The inhibition data is processed by standard methods to calculate an inhibition constant Ki for the test compound.

IBAT [2] = molecular target: T1, IBAT; assay: Inhibition of radiolabeled taurocholate uptake in IBAT-transfected CHO cells; assay type: cell-based; design: expressed in transfected cells; host or cells: CHO cells; settings: radiolabeled competition assay in transporter-expressing CHO cells
Method: as §3

hPEPT1 = molecular target: T3, hPEPT1 (Homo sapiens, UniProt P46059); assay: Electrogenic transport in Xenopus oocytes expressing hPEPT1; assay type: cell-based; settings: for % Max. (Gly-Sar): hPEPT1-expressing oocytes, test compound 1 mM, relative to Gly-Sar; for transport by hPEPT1 (in words): summary of Example 34
T3 sequence (P46059 1-708): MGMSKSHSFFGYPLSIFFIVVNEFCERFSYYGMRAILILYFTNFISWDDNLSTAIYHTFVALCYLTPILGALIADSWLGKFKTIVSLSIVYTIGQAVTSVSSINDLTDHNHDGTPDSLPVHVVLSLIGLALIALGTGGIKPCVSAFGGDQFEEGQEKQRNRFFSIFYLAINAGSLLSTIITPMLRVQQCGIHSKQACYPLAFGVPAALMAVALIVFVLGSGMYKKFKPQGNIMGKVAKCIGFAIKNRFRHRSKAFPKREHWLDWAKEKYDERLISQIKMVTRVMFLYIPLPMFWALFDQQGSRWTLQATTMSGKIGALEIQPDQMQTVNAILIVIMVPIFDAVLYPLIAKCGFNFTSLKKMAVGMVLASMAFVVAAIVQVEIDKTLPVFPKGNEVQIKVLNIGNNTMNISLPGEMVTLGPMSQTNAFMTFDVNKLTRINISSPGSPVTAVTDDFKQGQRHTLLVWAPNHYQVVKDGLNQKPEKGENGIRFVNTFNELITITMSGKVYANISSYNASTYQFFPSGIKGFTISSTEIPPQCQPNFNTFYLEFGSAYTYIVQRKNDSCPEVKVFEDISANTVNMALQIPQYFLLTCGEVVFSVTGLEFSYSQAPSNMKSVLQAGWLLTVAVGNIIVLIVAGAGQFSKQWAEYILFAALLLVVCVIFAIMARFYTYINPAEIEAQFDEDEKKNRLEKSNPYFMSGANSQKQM
From the text: (§4) RNA preparation: Rat and human PEPT1 and PEPT2 transporter cDNAs were subcloned into a modified pGEM plasmid that contains 5′ and 3′ untranslated sequences from the Xenopus β-actin gene. These sequences increase RNA stability and protein expression. Plasmid cDNA was linearized and used as template for in vitro transcription (Epicentre Technologies transcription kit, 4:1 methylated:non-methylated GTP).
as §1, §2
(§5) For transporter pharmacology, oocytes were clamped at −60 to −90 mV, and continuous current measurements acquired using PowerLab Software and an ADInstruments digitizer. Current signals were lowpass filtered at 20 Hz and acquired at 4-8 Hz. All bath and drug-containing solutions were frog ringers solution containing CaCl2. Drugs were applied for 10-30 seconds until the induced current reached a new steady-state level, followed by a control solution until baseline currents returned to levels that preceded drug application. The difference current (baseline subtracted from peak current during drug application) reflected the net movement of charge resulting from electrogenic transport and was directly proportional to tranport rate. Recordings were made from a single oocyte for up to 60 min, enabling 30-40 separate compounds to be tested per oocyte. […] To compare results between oocytes expressing different levels of transport activity, a saturating concentration of glycyl-sarcosine (1 mM) was used as a common reference to normalize results from test compounds. Using this normalization procedure Vmax (i.e. maximal induced current) for different compounds tested on different oocytes could be compared.

hPEPT2 = molecular target: T4, hPEPT2 (Homo sapiens, UniProt Q16348); assay: Electrogenic transport in Xenopus oocytes expressing hPEPT2; assay type: cell-based; settings: test compound 1 mM, relative to Gly-Sar
T4 sequence (Q16348 1-729): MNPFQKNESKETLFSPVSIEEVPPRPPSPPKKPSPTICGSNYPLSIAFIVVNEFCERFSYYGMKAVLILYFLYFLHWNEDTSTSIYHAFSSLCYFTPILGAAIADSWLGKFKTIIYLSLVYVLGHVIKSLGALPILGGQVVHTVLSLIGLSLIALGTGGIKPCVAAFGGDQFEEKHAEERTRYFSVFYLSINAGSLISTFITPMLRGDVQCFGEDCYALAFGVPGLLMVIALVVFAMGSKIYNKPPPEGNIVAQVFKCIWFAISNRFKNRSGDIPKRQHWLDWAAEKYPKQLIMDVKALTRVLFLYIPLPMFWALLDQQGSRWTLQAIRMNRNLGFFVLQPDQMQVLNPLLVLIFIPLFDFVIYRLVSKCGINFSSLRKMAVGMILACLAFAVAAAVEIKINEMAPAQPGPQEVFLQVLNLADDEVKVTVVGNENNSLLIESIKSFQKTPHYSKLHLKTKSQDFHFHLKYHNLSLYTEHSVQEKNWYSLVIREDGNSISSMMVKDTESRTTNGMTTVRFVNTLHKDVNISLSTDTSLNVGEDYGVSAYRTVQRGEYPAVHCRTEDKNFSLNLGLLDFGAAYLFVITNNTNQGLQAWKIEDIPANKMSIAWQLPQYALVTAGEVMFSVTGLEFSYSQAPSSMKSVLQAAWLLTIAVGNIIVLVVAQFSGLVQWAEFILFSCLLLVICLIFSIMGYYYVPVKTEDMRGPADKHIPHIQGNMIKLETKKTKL
From the text: as §4, §1, §2, §5

[3] = Pharmacokinetics in rats following oral administration (Examples 38 and 40); settings: male, Sprague-Dawley, rat, in vivo, 25 mg/kg
Method: (§6) The pharmacokinetics of the prodrug (4) were examined in rats. Three groups of four male Sprague-Dawley rats (approx 200 g) with jugular cannulae each received one of the following treatments: A) a single bolus intravenous injection of gabapentin (25 mg/kg, as a solution in water); B) a single oral dose of gabapentin (25 mg/kg, as a solution in water) administered by oral gavage; C) a single oral dose of (4) (85.25 mg/kg, as a solution in water) administered by oral gavage. Animals were fasted overnight prior to dosing and until 4 hours post-dosing. Serial blood samples were obtained over 24 hours following dosing and blood was processed for plasma by centrifugation. Plasma samples were stored at −80° C. until analyzed. Concentrations of (4) or gabapentin in plasma samples were determined by LC/MS/MS as described in Example 35. Plasma (50 μL) was precipitated by addition of […] of methanol and supernatent was injected directly onto the LC/MS/MS system. The method was linear for gabapentin over the concentration range 0.001 to 20 ng/mL and for (4) over the concentration range 0.01 to 10 ng/mL.
as §6, with “prodrug Cholyl-Phe-Gabapentin (7g)” for “prodrug (4)”, “of (7g) (103.5” for “of (4) (85.25”, “of (7g)” for “of (4)”, “or (2)” for “or gabapentin”, “described above.” for “described in Example 35.”, “system.” for “system. The method was linear for gabapentin over the concentration range 0.001 to 20 ng/mL and for (4) over the concentration range 0.01 to 10 ng/mL.”

T1 sequence (Q12908 whole entry): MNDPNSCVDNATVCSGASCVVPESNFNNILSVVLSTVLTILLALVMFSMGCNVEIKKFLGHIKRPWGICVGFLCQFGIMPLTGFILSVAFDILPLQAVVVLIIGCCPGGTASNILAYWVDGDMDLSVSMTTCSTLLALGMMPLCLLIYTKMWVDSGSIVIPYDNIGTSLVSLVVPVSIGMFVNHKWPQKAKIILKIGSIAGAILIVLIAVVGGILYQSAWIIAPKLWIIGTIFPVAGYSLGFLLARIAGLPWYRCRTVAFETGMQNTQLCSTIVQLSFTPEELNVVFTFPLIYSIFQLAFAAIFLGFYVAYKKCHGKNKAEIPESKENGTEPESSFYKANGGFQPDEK
T2 sequence (Q14973 whole entry): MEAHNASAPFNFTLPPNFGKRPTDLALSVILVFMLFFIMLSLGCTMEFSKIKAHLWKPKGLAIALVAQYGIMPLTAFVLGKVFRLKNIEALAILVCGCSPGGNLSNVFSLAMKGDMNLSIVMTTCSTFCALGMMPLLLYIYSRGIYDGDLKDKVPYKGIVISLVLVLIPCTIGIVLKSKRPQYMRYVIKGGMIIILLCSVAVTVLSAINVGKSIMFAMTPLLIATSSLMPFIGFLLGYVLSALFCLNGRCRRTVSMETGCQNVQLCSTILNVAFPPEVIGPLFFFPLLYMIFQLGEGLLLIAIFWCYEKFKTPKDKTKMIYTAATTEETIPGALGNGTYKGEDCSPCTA

SMILES | % Max. (Gly-Sar) (hPEPT1) [%] | % Max. (Gly-Sar) (hPEPT2) [%] | also measured
CC(CCC(=O)NCC(=O)NCC1(CC(=O)O)CCCCC1)C1CCC2C3C(O)CC4CC(O)CCC4(C)C3CC(O)C12C (stereo not shown) [(7a), Cholyl-Gly-Gabapentin] |  |  | % Max. (GDC) (IBAT [1]): 67%
CC(CCC(=O)NC(Cc1ccccc1)C(=O)NCC1(CC(=O)O)CCCCC1)C1CCC2C3C(O)CC4CC(O)CCC4(C)C3CC(O)C12C (stereo not shown) [(7g), Cholyl-Phe-Gabapentin] |  |  | IC50 (LBAT): 0.5 µM; IC50 (IBAT [2]): 92 µM; EC50 (IBAT [1]): 140 µM; % Max. (GDC) (IBAT [1]): 28%
CC(CCC(=O)NC(Cc1ccc(O)c(O)c1)C(=O)O)C1CCC2C3C(O)CC4CC(O)CCC4(C)C3CC(O)C12C (stereo not shown) [(20), Cholyl-Dopa] |  |  | IC50 (LBAT): 5 µM; IC50 (IBAT [2]): 83 µM; % Max. (GDC) (IBAT [1]): 0%
N[C@@H](CCC(=O)O)C(=O)N[C@@H](CSCc1ccccc1)C(=O)O [(27), H-Glu-Cys(Bzl)-OH] (H-Glu-Cys(Bn)-OH) | 41 | 56 | transport by hPEPT1 (in words) (hPEPT1): efficient substrates
N[C@@H](CCC(=O)O)C(=O)N[C@@H](COCc1ccccc1)C(=O)O [(28), H-Glu-Ser(Bzl)-OH] (H-Glu-Ser(Bn)-OH) | 58 | 82 | transport by hPEPT1 (in words) (hPEPT1): efficient substrates
N[C@@H](CC(=O)O)C(=O)N[C@@H](CSCc1ccccc1)C(=O)O [(30), H-Asp-Cys(Bzl)-OH] (H-Asp-Cys(Bn)-OH) | 55 | 78 | transport by hPEPT1 (in words) (hPEPT1): efficient substrates
N[C@@H](CCC(=O)O)C(=O)N[C@H](CSCc1ccccc1)C(=O)O [(34), H-Glu-D-Cys(Bzl)-OH] (H-Glu-[dC](Bn)-OH) | 1 | 0 | 
N[C@@H](CCC(=O)O)C(=O)N[C@H](COCc1ccccc1)C(=O)O [(35), H-Glu-D-Ser(Bzl)-OH] (H-Glu-[dS](Bn)-OH) | 1 | 0 | 
N[C@@H](CC(=O)O)C(=O)N[C@H](CSCc1ccccc1)C(=O)O [(36), H-Asp-D-Cys(Bzl)-OH] (H-Asp-[dC](Bn)-OH) | 2 | 0 | 
N[C@@H](CC(=O)O)C(=O)N[C@H](COCc1ccccc1)C(=O)O [(37), H-Asp-D-Ser(Bzl)-OH] (H-Asp-[dS](Bn)-OH) | 1 | 0 | 
Cl.NCC1(CC(=O)O)CCCCC1 [gabapentin, 1-aminomethyl-1-cyclohexaneacetic acid hydrochloride, reference compound] |  |  | bioavailability [3]: 87 ± 18%; Tmax ([3]; po): 2.8 ± 2.5 h; half-life ([3]; po): 2.4 ± 0.5 h
